The values that follow come from ChEMBL document CHEMBL5390261, “Agents for the Treatment of Gout: Current Advances and Future Perspectives” (J Med Chem, 2023).

Assay [1] deals with T1, Xanthine dehydrogenase/oxidase (Homo sapiens, UniProt P47989). The assay can be described thus: Inhibition of XO (unknown origin) by microtitre plate analysis.
For assay [2], the target named is T1, Xanthine dehydrogenase/oxidase. The assay can be described thus: Inhibition of XO (unknown origin).
For assay [3], the target named is Xanthine dehydrogenase/oxidase (Bos taurus, UniProt P80457). The assay can be described thus: Inhibition of Bovine milk xanthine oxidase using xanthine as substrate assessed as decrease in uric acid level preincubated for 5 mins followed by substrate addition by spectrophotometric analysis.
Chain of Xanthine dehydrogenase/oxidase (Bos taurus, UniProt P80457) (P80457 whole entry): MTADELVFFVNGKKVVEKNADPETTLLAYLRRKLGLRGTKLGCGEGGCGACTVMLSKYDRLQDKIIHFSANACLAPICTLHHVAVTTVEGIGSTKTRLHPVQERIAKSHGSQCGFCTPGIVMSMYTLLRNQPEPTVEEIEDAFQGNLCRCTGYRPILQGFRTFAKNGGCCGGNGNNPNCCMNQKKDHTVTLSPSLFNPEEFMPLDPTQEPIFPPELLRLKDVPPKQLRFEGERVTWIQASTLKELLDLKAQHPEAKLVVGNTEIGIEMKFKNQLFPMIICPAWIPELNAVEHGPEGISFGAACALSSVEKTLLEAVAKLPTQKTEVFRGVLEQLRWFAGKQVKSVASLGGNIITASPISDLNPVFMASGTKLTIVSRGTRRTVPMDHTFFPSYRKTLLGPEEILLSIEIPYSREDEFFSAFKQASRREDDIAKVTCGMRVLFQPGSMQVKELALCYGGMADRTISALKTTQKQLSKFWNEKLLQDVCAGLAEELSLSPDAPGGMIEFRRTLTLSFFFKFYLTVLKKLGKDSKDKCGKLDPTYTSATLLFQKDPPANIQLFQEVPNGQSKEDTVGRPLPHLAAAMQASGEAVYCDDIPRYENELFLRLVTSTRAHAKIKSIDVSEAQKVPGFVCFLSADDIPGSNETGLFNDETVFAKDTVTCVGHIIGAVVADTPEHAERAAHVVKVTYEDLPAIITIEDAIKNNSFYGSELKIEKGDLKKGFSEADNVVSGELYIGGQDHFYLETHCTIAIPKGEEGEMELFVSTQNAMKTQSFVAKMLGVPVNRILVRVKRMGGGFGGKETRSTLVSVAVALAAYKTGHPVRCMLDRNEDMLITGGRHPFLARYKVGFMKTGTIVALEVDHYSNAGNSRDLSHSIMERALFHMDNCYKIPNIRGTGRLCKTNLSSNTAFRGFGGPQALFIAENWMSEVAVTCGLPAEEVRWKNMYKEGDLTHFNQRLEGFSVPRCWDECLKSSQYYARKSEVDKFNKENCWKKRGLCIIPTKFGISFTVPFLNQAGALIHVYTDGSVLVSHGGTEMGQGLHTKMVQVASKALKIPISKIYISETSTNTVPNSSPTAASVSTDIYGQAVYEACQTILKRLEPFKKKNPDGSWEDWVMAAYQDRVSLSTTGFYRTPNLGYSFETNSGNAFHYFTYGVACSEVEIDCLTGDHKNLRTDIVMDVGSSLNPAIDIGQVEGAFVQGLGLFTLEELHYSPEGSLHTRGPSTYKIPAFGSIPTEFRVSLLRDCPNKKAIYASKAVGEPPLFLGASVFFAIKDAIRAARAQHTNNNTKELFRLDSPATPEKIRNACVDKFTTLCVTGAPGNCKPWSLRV
For assay [4], the target named is T1, Xanthine dehydrogenase/oxidase. The assay can be described thus: Inhibition of XO (unknown origin) using xanthine as substrate assessed as reduction in uric acid formation by FluoSTAR OPTIMA plate reader analysis.
Assay [5] has the same target. The assay can be described thus: Inhibition of XO (unknown origin) using xanthine as substrate preincubated for 3 hrs followed by substrate addition by UV-Vis spectrophotometric analysis.
Assay [6] shares this target. The assay can be described thus: Inhibition of XO (unknown origin) using xanthine as substrate assessed as reduction in uric acid formation by double beam spectrophotometric analysis.

SMILES strings stand for the structures.

T1 sequence (P47989 whole entry): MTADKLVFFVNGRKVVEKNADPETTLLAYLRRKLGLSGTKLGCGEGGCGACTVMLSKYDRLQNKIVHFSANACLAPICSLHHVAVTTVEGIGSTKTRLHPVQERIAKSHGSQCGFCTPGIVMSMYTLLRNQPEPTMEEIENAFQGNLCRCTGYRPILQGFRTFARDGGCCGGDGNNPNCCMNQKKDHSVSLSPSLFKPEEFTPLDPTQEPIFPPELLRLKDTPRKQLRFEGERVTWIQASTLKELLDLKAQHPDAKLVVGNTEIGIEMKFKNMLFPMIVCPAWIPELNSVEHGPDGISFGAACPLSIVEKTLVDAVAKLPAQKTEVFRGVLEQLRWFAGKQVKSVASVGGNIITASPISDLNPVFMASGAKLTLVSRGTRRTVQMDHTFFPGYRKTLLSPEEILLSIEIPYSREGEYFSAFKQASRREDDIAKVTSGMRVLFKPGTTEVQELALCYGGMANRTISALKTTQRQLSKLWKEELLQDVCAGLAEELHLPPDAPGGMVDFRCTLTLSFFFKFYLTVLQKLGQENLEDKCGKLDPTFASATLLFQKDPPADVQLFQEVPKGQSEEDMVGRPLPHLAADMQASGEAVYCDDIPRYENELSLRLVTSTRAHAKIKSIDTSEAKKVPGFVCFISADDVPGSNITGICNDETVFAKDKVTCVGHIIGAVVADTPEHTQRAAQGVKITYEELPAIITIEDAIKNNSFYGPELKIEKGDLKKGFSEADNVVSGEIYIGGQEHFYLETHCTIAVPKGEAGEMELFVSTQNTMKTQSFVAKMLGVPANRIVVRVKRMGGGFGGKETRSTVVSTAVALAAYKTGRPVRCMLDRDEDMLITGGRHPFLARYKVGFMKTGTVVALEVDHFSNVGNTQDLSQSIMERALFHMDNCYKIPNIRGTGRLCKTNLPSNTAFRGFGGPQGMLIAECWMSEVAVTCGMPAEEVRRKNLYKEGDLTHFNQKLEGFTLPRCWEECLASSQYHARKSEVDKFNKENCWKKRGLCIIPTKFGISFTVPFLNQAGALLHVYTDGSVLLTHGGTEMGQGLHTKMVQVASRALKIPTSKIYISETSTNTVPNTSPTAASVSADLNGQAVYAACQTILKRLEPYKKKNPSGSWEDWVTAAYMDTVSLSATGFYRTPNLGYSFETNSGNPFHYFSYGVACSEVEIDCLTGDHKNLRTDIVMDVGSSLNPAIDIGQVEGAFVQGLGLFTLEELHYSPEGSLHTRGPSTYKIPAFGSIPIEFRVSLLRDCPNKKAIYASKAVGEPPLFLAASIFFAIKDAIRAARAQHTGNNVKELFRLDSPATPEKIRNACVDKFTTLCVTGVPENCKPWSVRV

As for `O=c1ccc2cc(O)c(O)cc2o1` [ESCULETIN], in assay [1], the IC50 (commonly the midpoint of a concentration-inhibition curve) is 42000 nM.
With `O=c1c(-c2ccc(O)cc2)coc2cc(O)cc(O)c12` [GENISTEIN], the half-inhibitory concentration (IC50) in assay [2] was 3530 nM.
As for `O=c1oc2ccccc2c2c1C(c1cccs1)C=C(c1ccccc1)O2` (configuration not stated), the IC50 in assay [3] worked out at 2210 nM.
As to `COc1ccc([C@@H]2CC(=O)c3c(O)cc(O)cc3O2)cc1O` [HESPERETIN], in assay [4], the IC50 is 840 nM.
`O=c1cc(-c2ccccc2)oc2cc(O)cc(O)c12` [CHRYSIN] came in with an IC50 in assay [5] of 1260 nM.
On to `COc1cc(O)cc2c(=O)oc(O)c(C)c12`, for which it took 2970 nM to reach half-maximal inhibition in assay [1] (IC50).
As to `O=c1oc2c(O)ccc(-c3oc4cc(O)cc(O)c4c(=O)c3O)c2s1`, in assay [6], the IC50 is 50 nM.
